Measurements from publication PMC9326216, “Treatment of Cardiovascular Dysfunction with PDE3-Inhibitors in Moderate and Severe Hypothermia—Effects on Cellular Elimination of Cyclic Adenosine Monophosphate and Cyclic Guanosine Monophosphate” (Frontiers in Physiology, 2022).

Tests used:
erythrocytes = assay: Intracellular access of the drugs in erythrocytes (LC-MS); type: in vitro ADME, human; conditions: 30 min incubation, milrinone 10 µM, amrinone 100 µM, levosimendan 1 µM
Description: Fresh (<24 h) EDTA blood from healthy donors (n = 18) was obtained and washed with Krebs-Ringer-Phosphate-Buffer containing glucose (KRPB/G, pH 7.4) and centrifuged (10 min, 1,000 g) three consecutive times. Plasma and buffy coat were removed. KRPB/G was added to the cell solution to bring it to the ratio 1:2.5. Hematocrit (Hct) was measured and adjusted with additional buffer to reach 0.44, in order to give the final Hct of 0.40 in the incubation solution. […] The reaction was stopped by placing the test tubes on ice and adding 4 ml of ice cold KRFB/G. The samples were subsequently centrifugated (5 min, 600 g), then washed with KRFB/G once more and centrifugation was repeated twice. 50 µl of the remaining red blood cell suspension was transferred to Eppendorf tubes. 50 µl 500 nM IS-Milrinone-d3 was added as an internal standard (TLC Pharmaceutical Standards Ltd.). 200 µl ZnSO4 was added to each test sample, to induce lysis of the cells, and mixed in a vortex mixer. 30 µl of the samples were used for measurement of protein concentration, the rest was mixed with 500 µl acetonitrile and centrifugated (2 min, 13400 g). Finally, 100 µl of the solution was collected for analysis using mass spectrometry (MS).
Liquid chromatography tandem mass spectrometry (LC-MS) was used to assess concentrations of the inhibitors for experiments performed to determine intracellular access of these drugs, as well as to quantify levels of cAMP/AMP and cGMP/GMP for the PDE3-and PDE5-inhibition plots. Internal standards were used, as described previously. There was a linearity from 0.2 nM to at least 2000 nM (r^2 > 0.998) for cAMP, AMP, and cGMP. For GMP, linearity was present from 2 nM to at least 2000 nM (r^2 > 0.998). Concerning PDE3-inhibitors, the linearity was found at 10 nM to at least 5,000 nM (r^2 > 0.99). Lower limit of quantification (LLOQ) was 0.2 for cAMP, cGMP, and AMP, 2 nM for GMP and 10 nM for PDE3-inhibitors (2 µl injection volume).
Intracellular concentrations of drugs were adjusted for protein concentrations in each sample. The total incubation concentrations were also adjusted for protein concentrations to evaluate the degree of access in percentage. Statistical analysis was performed using one-way ANOVA with Holm-Sidak multiple comparisons post hoc test at each temperature. ANOVA on ranks with Dunn post hoc test was used when the results were not normally distributed. The results are presented as means ± standard error of mean (SEM). p-values < 0.05 were considered significant results. Degrees of freedom (dF) is given as between group values. SigmaPlot 14.0 (Systat Software, San Jose, CA, United States) was used for all analysis, as well as creating the graphs.

ABCC4 = target: T1, ABCC4 (Homo sapiens, UniProt O15439); assay: biochemical; type: biochemical; conditions: cAMP-efflux, inside-out vesicles; for IC50: 20 µM 3H-cAMP, 60 min; for Ki: ABCC4 Ki
T1 sequence (O15439 1-1325): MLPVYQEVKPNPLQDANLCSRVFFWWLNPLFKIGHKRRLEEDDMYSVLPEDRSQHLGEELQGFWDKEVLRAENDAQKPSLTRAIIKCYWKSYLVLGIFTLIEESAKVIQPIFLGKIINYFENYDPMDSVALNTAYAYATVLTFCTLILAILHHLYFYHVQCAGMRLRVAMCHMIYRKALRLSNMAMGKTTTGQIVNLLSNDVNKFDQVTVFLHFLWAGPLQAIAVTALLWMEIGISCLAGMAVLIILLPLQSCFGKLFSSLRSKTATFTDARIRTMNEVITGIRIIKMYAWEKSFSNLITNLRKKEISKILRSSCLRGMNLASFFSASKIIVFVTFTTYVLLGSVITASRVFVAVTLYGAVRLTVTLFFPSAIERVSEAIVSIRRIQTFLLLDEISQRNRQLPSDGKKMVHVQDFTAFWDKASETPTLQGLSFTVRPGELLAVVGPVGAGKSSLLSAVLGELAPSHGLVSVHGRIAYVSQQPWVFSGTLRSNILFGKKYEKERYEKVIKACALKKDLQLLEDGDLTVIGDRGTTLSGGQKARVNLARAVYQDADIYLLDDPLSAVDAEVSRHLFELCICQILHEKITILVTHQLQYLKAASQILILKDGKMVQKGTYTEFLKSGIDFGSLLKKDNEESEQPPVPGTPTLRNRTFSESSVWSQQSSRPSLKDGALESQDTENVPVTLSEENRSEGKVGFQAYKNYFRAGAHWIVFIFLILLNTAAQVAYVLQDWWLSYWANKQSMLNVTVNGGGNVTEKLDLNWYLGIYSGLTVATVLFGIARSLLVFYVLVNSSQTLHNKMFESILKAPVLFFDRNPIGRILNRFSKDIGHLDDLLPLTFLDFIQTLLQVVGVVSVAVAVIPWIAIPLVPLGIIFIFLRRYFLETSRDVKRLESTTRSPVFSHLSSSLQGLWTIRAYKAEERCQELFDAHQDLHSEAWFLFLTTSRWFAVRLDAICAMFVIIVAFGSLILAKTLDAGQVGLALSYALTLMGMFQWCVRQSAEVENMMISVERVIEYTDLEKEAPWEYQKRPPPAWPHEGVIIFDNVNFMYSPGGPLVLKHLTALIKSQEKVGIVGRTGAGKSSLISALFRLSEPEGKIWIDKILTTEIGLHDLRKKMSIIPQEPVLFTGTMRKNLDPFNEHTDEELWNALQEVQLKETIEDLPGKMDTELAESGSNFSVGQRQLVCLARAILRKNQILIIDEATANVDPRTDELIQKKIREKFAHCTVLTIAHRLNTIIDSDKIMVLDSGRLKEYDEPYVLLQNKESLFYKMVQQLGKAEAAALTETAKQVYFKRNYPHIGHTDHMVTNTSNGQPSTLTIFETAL
Description: Freshly collected EDTA blood from healthy donors (n = 35) was prepared at 0°C–4°C, starting by separating the erythrocytes from plasma by centrifugation at 2,300 g for approximately 15 min. […] Lysis followed thereafter, with ten volumes of 5 mM Tris-HCl, 0.5 mM EGTA, 4 mM KCl (pH 8.1) and washed by repeated centrifugation at 20,000 g for 20 min and resuspension in the same buffer. Vesiculation was initiated by adding 39 volumes of a […] buffer ([…] Tris-HCl, pH 8.2) to one volume of cell suspension and completed by forcing the solution five times through a 27-gauge syringe needle to promote homogenization of the membranes. […] The resulting IOVs, which still contained ABC-transporters in the membrane, enabled us to control the intracellular environment, in this case the surrounding medium, and collect the cyclic nucleotides within. […] Radioactive labeled (^3H)-cAMP or (^3H)-cGMP (Perkin Elmer, Boston, MA, United States) were added to the incubation solutions in the concentration 20 and 2 μM, respectively, depending on the transporter examined, together with the appointed study drug in concentrations up to 1 mM. […] Next step was to collect the IOVs, which was done by filtration through a nitrocellulose membrane (Bio-Rad Laboratories, Feldkirchen, Germany), and then drying it. The resulting collection of radioactivity upon the filter, was later quantified by using a Packard TopCount NXT (Packard, Downers Grove, IL, United states) after adding scintillation fluid (MicroScint-O, PerkinElmer, Groningen, Netherlands).
IC50 and Ki values were calculated for each of the drugs, both for their ability to inhibit cAMP- and cGMP- efflux, as well as PDE3 and PDE5 activity. […] Inhibition curves were created accordingly, both with and without adjustment for normothermic control.

`Cc1[nH]c(=O)c(C#N)cc1-c1ccncc1` [Milrinone] was tested, and the “Intracellular access, % of drug concentration per gram protein in the incubation solution” value (erythrocytes; 28°C) was 15.06 ± 0.544%, the “Intracellular access, % of drug concentration per gram protein in the incubation solution” value (erythrocytes; 34°C) was 11.41 ± 1.675% and the IC50 (ABCC4; ABCC4 IC50, 28°C) was 37.4 ± 24.5 µM. It also gave an IC50 (ABCC4; ABCC4 IC50, 32°C) of 32.9 ± 14.6 µM, an IC50 (ABCC4; ABCC4 IC50, 34°C) of 67 ± 22.6 µM and an IC50 (ABCC4; ABCC4 IC50, 37°C) of 58.9 ± 13.1 µM. It also gave a Ki (ABCC4; 28°C) of 22.7 ± 14.9 µM, a Ki (ABCC4; 32°C) of 20 ± 8.86 µM and a Ki (ABCC4; 34°C) of 40.6 ± 13.7 µM. It also gave a Ki (ABCC4; 37°C) of 35.7 ± 7.94 µM.
